In patent publication US20200354327A1, “COMPOUND HAVING STAT3 INHIBITORY ACTIVITY AND USE THEREOF” (CYTUS H&B CO., LTD., priority 2017, published 2020):

Biological target: STAT3 (Homo sapiens, UniProt P40763)
Assay: Western blot of the 46 Table 1 compounds in Hodgkin lymphoma cell lines L540 and HDLM-2
Assay type: cell-based
Set-up: endogenous in cells; host or cells: L540, HDLM-2, U87-MG, MDA-MB-231, further human glioblastoma and breast cancer lines
Settings: L540 and HDLM-2
Experimental: The human cancer cell lines used in the experiment were U87-MG (human malignant glioblastoma) and MDA-MB-231 (human malignant breast cancer) cell lines, and various kinds of human-derived blood and solid cancer cells including these human cancer cell lines were cultured as previously described (Jung J E, et al. FASEB J. 19, 1296-1298 (2005)). The human Hodgkin lymphoma cancer cell lines L540 and HLDM-2 used in the experiment were obtained from the German Collection of Microorganism and Cell Cultures (DSMZ, Germany) and cultured using RPMI 1640 medium containing 20% FBS in a 5% CO2 incubator at a temperature of 37° C.
Western blot analysis was performed (Jung J E, et al. FASEB J. 19, 1296-1298 (2005)). The cells were washed two times with PBS and suspended in the lysate (50 mM Tris-HCl, pH 7.4, 350 mM NaCl, 1% Triton X-100, 0.5% Nonidet P-40, 10% glycerol, 0.1% SDS, 1 mM EDTA, 1 mM EGTA, 1 mM Na3VO4, 1 mM PMSF, protease and phosphorylation inhibitor) and the cell membrane and nuclear membrane were crushed to lyse the cells. The insoluble protein fraction was removed by centrifugation, and the supernatant was mixed with SDS electrophoresis buffer and electrophoresis (SDS-PAGE) was performed to detect the protein with the desired antibody and to confirm the protein expression level.

STAT3, sequence (P40763 whole entry): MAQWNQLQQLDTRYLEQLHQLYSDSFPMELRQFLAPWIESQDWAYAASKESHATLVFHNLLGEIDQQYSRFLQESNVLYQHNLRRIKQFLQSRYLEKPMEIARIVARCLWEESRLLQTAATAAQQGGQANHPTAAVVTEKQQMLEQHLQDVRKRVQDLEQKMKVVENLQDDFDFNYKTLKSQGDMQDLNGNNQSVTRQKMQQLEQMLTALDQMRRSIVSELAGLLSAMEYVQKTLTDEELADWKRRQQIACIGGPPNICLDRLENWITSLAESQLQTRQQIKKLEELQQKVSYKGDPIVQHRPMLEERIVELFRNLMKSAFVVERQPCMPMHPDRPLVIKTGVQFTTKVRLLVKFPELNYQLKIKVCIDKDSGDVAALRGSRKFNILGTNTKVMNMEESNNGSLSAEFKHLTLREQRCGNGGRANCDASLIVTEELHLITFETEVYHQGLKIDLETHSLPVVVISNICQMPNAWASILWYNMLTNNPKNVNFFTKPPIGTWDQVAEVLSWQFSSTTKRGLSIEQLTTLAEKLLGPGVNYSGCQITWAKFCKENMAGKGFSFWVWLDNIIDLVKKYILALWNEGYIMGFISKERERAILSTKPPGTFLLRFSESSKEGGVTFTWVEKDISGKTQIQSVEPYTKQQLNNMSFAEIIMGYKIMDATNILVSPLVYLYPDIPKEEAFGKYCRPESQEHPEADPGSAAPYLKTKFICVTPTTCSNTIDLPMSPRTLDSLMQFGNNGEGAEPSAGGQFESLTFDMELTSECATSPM

Row | Compound | STAT3 inhibitory efficacy, first screening
1 | Cl.Cl.NCCc1nc2ccccc2c(=O)[nH]1.O [compound 1, 2-(2-aminoethyl)-4(3H)-quinazolinone dihydrochloride hydrate] | judged to exert superior STAT3 inhibitory efficacy
2 | O=S(=O)(NCCc1nc2ccccc2[nH]1)c1ccccc1 [compound 4, N-[2-(lH-benzimidazol-2-yl)ethyl]benzenesulfonamide] | judged to exert superior STAT3 inhibitory efficacy
3 | O=C1NCSC1=Cc1ccccc1O [compound 5, 5-(2-hydroxybenzylidene)-l,3-thiazolidin-4-one] | judged to exert superior STAT3 inhibitory efficacy
4 | O=S(=O)(NCc1nc2ccccc2[nH]1)c1ccccc1 [compound 6, N-(1H-benzimidazol-2-ylmethyl)benzenesulfonamide] | judged to exert superior STAT3 inhibitory efficacy
5 | O=C(O)C1Cc2c([nH]c3ccccc23)C(c2ccc(O)cc2)N1 (stereo not drawn) [compound 8, l-(4-hydroxyphenyl)-2,3,4,9-tetrahydro-lH-beta-carboline-3-carboxylic acid] | judged to exert superior STAT3 inhibitory efficacy
6 | O=C(Nc1nc(O)nc(C=Cc2ccccc2)n1)NS(=O)(=O)c1ccccc1Cl [compound 9, 2-chloro-N-({[4-hydroxy-6-(2-phenylvinyl)-l,3,5-triazin-2-yl]amino]carbonyl)benzenesulfonamide] | judged to exert superior STAT3 inhibitory efficacy
7 | O=C(O)c1cccc(NS(=O)(=O)c2cccc(C(F)(F)F)c2)c1 [compound 11, 3-({[3-(trifluoromethyl)phenyl]sulfonyl}amino)benzoic acid] | judged to exert superior STAT3 inhibitory efficacy
8 | O=S(=O)(NCc1nc2ccccc2[nH]1)c1ccc(Cl)cc1 [compound 14, N-(1H-benzimidazol-2-ylmethyl)-4-chlorobenzenesulfonamide] | judged to exert superior STAT3 inhibitory efficacy
9 | CC1CN(Cc2nc3c([nH]2)c(=O)[nH]c(=O)n3C)CC(C)O1 (stereo not drawn) [compound 16, 8-[(2,6-dimethyl-4-morpholinyl)methyl]-3-methyl-3,7-dihydro-lH-purine-2,6-dione] | judged to exert superior STAT3 inhibitory efficacy
10 | CC(CNCc1nc2ccccc2[nH]1)c1ccccc1 (stereo not drawn) [compound 18, (1H-benzimidazol-2-ylmethyl)(2-phenylpropyl)amine] | judged to exert superior STAT3 inhibitory efficacy
11 | CCS(=O)(=O)Nc1cccc(C2=NN(S(C)(=O)=O)C(c3cccc(F)c3)C2)c1 (stereo not drawn) [compound 19, N-{3-[5-(3-fluorophenyl)-l-(methylsulfonyl)-4,5-dihydro-lH-pyrazol-3-yl]phenyl}ethanesulfonamide] | judged to exert superior STAT3 inhibitory efficacy
12 | O=S(=O)(NCc1nc2ccccc2[nH]1)c1ccc(Cl)c(Cl)c1 [compound 20, N-(lH-benzimidazol-2-ylmethyl)-3,4-dichlorobenzenesulfonamide] | judged to exert superior STAT3 inhibitory efficacy
13 | O=C(Nc1ccc(C(=O)N2CCNC2=O)cc1)c1cccs1 [compound 21, N-{4-[(2-oxo-l-imidazolidinyl)carbonyl]phenyl}-2-thiophenecarboxamide] | judged to exert superior STAT3 inhibitory efficacy
14 | O=C(Nc1ccc(C(=O)N2CCNC2=O)cc1)c1ccccc1 [compound 22, N-{4-[(2-oxo-l-imidazolidinyl)carbonyl]phenyl}benzamide] | judged to exert superior STAT3 inhibitory efficacy
15 | O=C(COc1ccc(Cl)cc1S(=O)(=O)NC1CC1)N1CCOCC1 [compound 23, 5-chloro-N-cyclopropyl-2-[2-(4-morpholinyl)-2-oxoethoxy]benzenesulfonamide] | judged to exert superior STAT3 inhibitory efficacy
